According to US10597388B2, “Pyridazinone herbicides” (FMC CORPORATION, priority 2014, dated 2020):

Experiments:
Assay in all cases: Test E greenhouse herbicide test, pre- and postemergence
Assay type in all cases: in vivo
[1] = test system: foxtail, green (green foxtail, Setaria viridis); conditions: Preemergence
Outline: (§1)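 Compounds in a non-phytotoxic solvent mixture with surfactant were applied preemergence to seeds in silt loam soil and postemergence to 2-18 cm plants (1- to 4-leaf stage) in peat-based medium. After 14 to 21 d in a greenhouse, injury was rated visually against untreated controls on a 0 (no effect) to 100 (complete control) scale.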

[2] = test system: goosegrass (Eleusine indica); conditions: Preemergence
Outline: as §1

[3] = test system: sandbur (southem sandbur, Cenchrus echinatus)
Outline: as §1

[4] = test system: foxtail, giant (giant foxtail, Setaria faberii); conditions: Preemergence
Outline: as §1

kochia (Kochia scoparia) = test system: kochia (Kochia scoparia)
Outline: as §1

[5] = test system: panicum, fall (fall panicum, Panicum dichotomiflorum)
Outline: as §1

[6] = test system: nightshade (eastern black nightshade, Solanum ptycanthum); conditions: Preemergence
Outline: as §1

[7] = test system: Italian ryegrass (Lolium multiflorum)
Outline: as §1

[8] = test system: barnyardgrass (Echinochloa crus-galli)
Outline: as §1

[9] = test system: crabgrass, large (large crabgrass, Digitaria sanguinalis); conditions: Preemergence
Outline: as §1

[10] = test system: surinam grass (Brachiaria decumbens); conditions: Preemergence
Outline: as §1

[11] = test system: lambsquarters (Chenopodium album); conditions: Preemergence
Outline: as §1

[12] = test system: velvetleaf (Abutilon theophrasti); conditions: Preemergence
Outline: as §1

[13] = test system: crabgrass, Brazilian (Brazilian crabgrass, Digitaria horizontalis)
Outline: as §1

corn (Zea mays) = test system: corn (Zea mays)
Outline: as §1

[14] = test system: horseweed (Conyza canadensis)
Outline: as §1

[15] = test system: arrowleaf sida (Sida rhombifolia)
Outline: as §1

[16] = 62 g ai/ha, scale 0 to 100 (0 no effect, 100 complete control)
[17] = 125 g ai/ha, scale 0 to 100 (0 no effect, 100 complete control)
[18] = 31 g ai/ha, scale 0 to 100, 0 no effect, 100 complete control
[19] = 250 g ai/ha, visual, scale 0 no effect to 100 complete control
[20] = 125 g ai/ha, Postemergence, scale 0 to 100 (0 no effect, 100 complete control)
[21] = 125 g ai/ha, Preemergence, scale 0 to 100 (0 no effect, 100 complete control)
[22] = 250 g ai/ha, Postemergence, scale 0 to 100 (0 no effect, 100 complete control)
[23] = Postemergence, 31 g ai/ha, visual, scale 0 no effect to 100 complete control
[24] = Preemergence, 31 g ai/ha, scale 0 to 100, 0 no effect, 100 complete control
[25] = Preemergence, 250 g ai/ha, visual, scale 0 no effect to 100 complete control
[26] = 62 g ai/ha, Postemergence, scale 0 to 100 (0 no effect, 100 complete control)
[27] = 62 g ai/ha, Preemergence, scale 0 to 100 (0 no effect, 100 complete control)

Structure (SMILES): CC(=O)Oc1c(C)nn(C)c(=O)c1-c1c(C)cc(C)c2ccccc12 [Compound 153]
- Plant response rating, Foxtail, Green [1, 16]: 75
- Plant response rating, Foxtail, Green [1, 17]: 90
- Plant response rating, Foxtail, Green [1, 18]: 50
- Plant response rating, Foxtail, Green [1, 19]: 95
- Plant response rating, Goosegrass [2, 16]: 40
- Plant response rating, Goosegrass [2, 17]: 60
- Plant response rating, Goosegrass [2, 18]: 40
- Plant response rating, Goosegrass [2, 19]: 75
- Plant response rating, Sandbur [3, 20]: 60
- Plant response rating, Sandbur [3, 21]: 85
- Plant response rating, Sandbur [3, 22]: 70
- Plant response rating, Sandbur [3, 23]: 50
- Plant response rating, Sandbur [3, 24]: 80
- Plant response rating, Sandbur [3, 25]: 90
- Plant response rating, Foxtail, Giant [4, 16]: 95
- Plant response rating, Foxtail, Giant [4, 17]: 95
- Plant response rating, Foxtail, Giant [4, 18]: 75
- Plant response rating, Foxtail, Giant [4, 19]: 100
- Plant response rating, Kochia (kochia (Kochia scoparia); [26]): 50
- Plant response rating, Kochia (kochia (Kochia scoparia); [20]): 55
- Plant response rating, Kochia (kochia (Kochia scoparia); [21]): 50
- Plant response rating, Kochia (kochia (Kochia scoparia); [22]): 70
- Plant response rating, Kochia (kochia (Kochia scoparia); [23]): 50
- Plant response rating, Kochia (kochia (Kochia scoparia); [24]): 40
- Plant response rating, Kochia (kochia (Kochia scoparia); [25]): 90
- Plant response rating, Panicum, Fall [5, 26]: 90
- Plant response rating, Panicum, Fall [5, 20]: 90
- Plant response rating, Panicum, Fall [5, 21]: 100
- Plant response rating, Panicum, Fall [5, 22]: 90
- Plant response rating, Panicum, Fall [5, 23]: 85
- Plant response rating, Panicum, Fall [5, 24]: 100
- Plant response rating, Panicum, Fall [5, 25]: 100
- Plant response rating, Nightshade [6, 17]: 95
- Plant response rating, Nightshade [6, 18]: 70
- Plant response rating, Nightshade [6, 19]: 100
- Plant response rating, Ryegrass, Italian [7, 26]: 90
- Plant response rating, Ryegrass, Italian [7, 20]: 90
- Plant response rating, Ryegrass, Italian [7, 21]: 100
- Plant response rating, Ryegrass, Italian [7, 22]: 95
- Plant response rating, Ryegrass, Italian [7, 23]: 85
- Plant response rating, Ryegrass, Italian [7, 24]: 100
- Plant response rating, Ryegrass, Italian [7, 25]: 100
- Plant response rating, Barnyardgrass [8, 26]: 40
- Plant response rating, Barnyardgrass [8, 27]: 50
- Plant response rating, Barnyardgrass [8, 20]: 50
- Plant response rating, Barnyardgrass [8, 21]: 70
- Plant response rating, Barnyardgrass [8, 22]: 80
- Plant response rating, Barnyardgrass [8, 23]: 25
- Plant response rating, Barnyardgrass [8, 24]: 20
- Plant response rating, Barnyardgrass [8, 25]: 90
- Plant response rating, Crabgrass, Large [9, 16]: 70
- Plant response rating, Crabgrass, Large [9, 17]: 75
- Plant response rating, Crabgrass, Large [9, 18]: 70
- Plant response rating, Crabgrass, Large [9, 19]: 80
- Plant response rating, Surinam Grass [10, 17]: 90
- Plant response rating, Surinam Grass [10, 18]: 50
- Plant response rating, Surinam Grass [10, 19]: 100
- Plant response rating, Lambsquarters [11, 17]: 100
- Plant response rating, Lambsquarters [11, 18]: 100
- Plant response rating, Lambsquarters [11, 19]: 100
- Plant response rating, Velvetleaf [12, 17]: 90
- Plant response rating, Velvetleaf [12, 18]: 85
- Plant response rating, Velvetleaf [12, 19]: 100
- Plant response rating, Crabgrass, Brazil [13, 26]: 30
- Plant response rating, Crabgrass, Brazil [13, 27]: 70
- Plant response rating, Crabgrass, Brazil [13, 20]: 40
- Plant response rating, Crabgrass, Brazil [13, 21]: 100
- Plant response rating, Crabgrass, Brazil [13, 22]: 50
- Plant response rating, Crabgrass, Brazil [13, 23]: 20
- Plant response rating, Crabgrass, Brazil [13, 24]: 90
- Plant response rating, Crabgrass, Brazil [13, 25]: 100
- Plant response rating, Corn (corn (Zea mays); [26]): 0
- Plant response rating, Corn (corn (Zea mays); [27]): 0
- Plant response rating, Corn (corn (Zea mays); [20]): 0
- Plant response rating, Corn (corn (Zea mays); [21]): 10
- Plant response rating, Corn (corn (Zea mays); [22]): 0
- Plant response rating, Corn (corn (Zea mays); [23]): 0
- Plant response rating, Corn (corn (Zea mays); [24]): 0
- Plant response rating, Corn (corn (Zea mays); [25]): 20
- Plant response rating, Horseweed [14, 26]: 80
- Plant response rating, Horseweed [14, 27]: 100
- Plant response rating, Horseweed [14, 20]: 85
- Plant response rating, Horseweed [14, 21]: 100
- Plant response rating, Horseweed [14, 22]: 85
- Plant response rating, Horseweed [14, 23]: 85
- Plant response rating, Horseweed [14, 24]: 90
- Plant response rating, Horseweed [14, 25]: 100
- Plant response rating, Arrowleaf Sida [15, 26]: 50
- Plant response rating, Arrowleaf Sida [15, 27]: 70
- Plant response rating, Arrowleaf Sida [15, 20]: 40
- Plant response rating, Arrowleaf Sida [15, 21]: 60
- Plant response rating, Arrowleaf Sida [15, 22]: 40
- Plant response rating, Arrowleaf Sida [15, 23]: 40
- Plant response rating, Arrowleaf Sida [15, 24]: 50
- Plant response rating, Arrowleaf Sida [15, 25]: 75
